Experimental data published in the Kinase Knowledgebase extract (Sharma et al. 2016).
Where “and” joins values, the source holds several entries; their conditions need not be identical. Equal entries are not always repeated.

Experiments:
[1] = biological target: CDK2;CDK1 (human) (UniProt P24941); test: Cell-Based Assay; conditions: hela-s3
[2] = biological target: CDK2 (human) (UniProt P24941); test: Enzyme Assay
[3] = biological target: CDK2 (human) (UniProt P24941); test: Enzyme Assay; remark: listed apart in the source

IC50 [2] | IC50 [3] | Compound | GI50 [1]
 |  | CC(C)n1cnc2c(NCc3ccc(-c4ccccc4)cc3)nc(N3CCC(C(N)=O)CC3)nc21 | 5000 nM and 3000 nM
 |  | COc1cccc(-c2ccc(CNc3nc(N[C@H]4CC[C@H](NC(C)=O)CC4)nc4c3ncn4C(C)C)cc2)c1 | 300 nM and 400 nM
 |  | CC(C)n1cnc2c(NCc3ccc(-c4ccccc4)cc3)nc(N3CCC(N)C3)nc21 (stereo unspecified) | 500 nM
 |  | CC(=O)NCCNc1nc(NCc2ccc(-c3ccccc3)cc2)c2ncn(C(C)C)c2n1 | 3000 nM and 4000 nM
 |  | CCN(C(C)=O)[C@H]1CC[C@H](Nc2nc(NCc3ccc(-c4ccccc4)cc3)c3ncn(C(C)C)c3n2)CC1 | 600 nM and 800 nM
 |  | CC(C)n1cnc2c(NCc3ccc(-c4ccccc4)cc3)nc(N[C@H]3CC[C@H](NS(=O)(=O)C(F)(F)F)CC3)nc21 | 3000 nM and 2000 nM and 4000 nM
 |  | CC(C)n1cnc2c(NCc3ccc(-c4ccccc4)cc3)nc(N[C@H]3CC[C@H](NS(C)(=O)=O)CC3)nc21 | 200 nM and 100 nM
 |  | CC(C)n1cnc2c(NCc3ccc(-c4ccccc4)cc3)nc(N[C@H]3CC[C@H](NCC4CC4)CC3)nc21 | 300 nM
100 nM | 1000 nM | CCn1cnc2c(NCc3ccc(Cl)cc3)nc(N[C@H]3CCCC[C@H]3N)nc21 | 3000 nM
 |  | CC(=O)N[C@H]1CC[C@H](Nc2nc(NCc3ccc(-c4cccc(C)c4)cc3)c3ncn(C(C)C)c3n2)CC1 | 400 nM and 200 nM
 |  | CCC(=O)N[C@H]1CC[C@H](Nc2nc(NCc3ccc(-c4ccccc4)cc3)c3ncn(C(C)C)c3n2)CC1 | 200 nM and 400 nM and 300 nM
 | 200 nM and 60 nM | CN1CC[C@@H](c2c(O)cc(O)c3c(=O)cc(C4CCCCC4Cl)oc23)[C@@H](O)C1 (stereo partly specified) | 
 |  | COC(=O)N[C@H]1CC[C@H](Nc2nc(NCc3ccc(-c4ccccc4)cc3)c3ncn(C(C)C)c3n2)CC1 | 700 nM and 400 nM and 300 nM
 |  | CC(C)n1cnc2c(NCc3ccc(-c4ccccc4)cc3)nc(N[C@H]3CC[C@H](N(CC4CC4)CC4CC4)CC3)nc21 | 30 nM
 |  | CCCCN[C@H]1CC[C@H](Nc2nc(NCc3ccc(-c4ccccc4)cc3)c3ncn(C(C)C)c3n2)CC1 | 500 nM and 300 nM
 |  | CC(C)n1cnc2c(NCc3ccc(-c4ccccc4)cc3)nc(N[C@H]3CC[C@H](N4C(=O)CCC4=O)CC3)nc21 | 300 nM and 200 nM and 500 nM
 |  | CC(C)n1cnc2c(NCc3ccc(-c4ccccc4)cc3)nc(NCCN)nc21 | 200 nM and 400 nM
 |  | CC(C)n1cnc2c(NCc3ccc(-c4ccccc4)cc3)nc(N[C@H]3CC[C@H](NC(=O)C4CC4)CC3)nc21 | 300 nM
3000 nM and 1000 nM | 4000 nM and 11000 nM | CC(C)n1cnc2c(NCc3ccc(-c4ccccc4)cc3)nc(NC[C@H](C)NC(=O)OC(C)(C)C)nc21 | 300 nM and 100 nM
 |  | CC(C)n1cnc2c(NCCc3ccc(-c4ccsc4)cc3)nc(N[C@H]3CC[C@H](NC(=O)OC(C)(C)C)CC3)nc21 | > 10000 nM and 7000 nM
 |  | CCN[C@H]1CC[C@H](Nc2nc(NCc3ccc(-c4ccccc4)cc3)c3ncn(C(C)C)c3n2)CC1 | 2000 nM and 900 nM
 |  | CC(C)n1cnc2c(NCc3ccc(-c4ccccc4)cc3)nc(NCCCN)nc21 | 300 nM and 600 nM
